Experimental data published in article PMC8284454, “In Vitro Profiling of Antitubercular Compounds by Rapid, Efficient, and Nondestructive Assays Using Autoluminescent Mycobacterium tuberculosis” (Antimicrobial Agents and Chemotherapy, 2021).
In brackets after ≈: the same amount, converted by molar mass. Where two headings read alike, the source gives them in different places. Marks after values point to notes of the source that are not given here.

Key:
[1] = test system: M. tuberculosis H37Rv_LuxABCDE; test: microplate alamarBlue assay (MABA) MIC; settings: 90% reduction of fluorescence, 7 days, 7H12 medium; SD from three independent experiments
[2] = test system: M. tuberculosis H37Rv_LuxABCDE; test: luminescence-based MBC assay (LMBCA) / time-kill; assay type: cell-based, Mycobacterium tuberculosis; settings: for change of MBC values over time: over 21 days, luminescence time-kill; for time and/or concentration dependence of bactericidal activity: time-kill curves up to day 21
[3] = test system: M. tuberculosis H37Rv_LuxABCDE; test: luminescence-based MIC assay (LMICA); settings: for MIC (±SD) LMICA: 90% reduction of luminescence, 7 days, 7H12 medium, SD from three independent experiments
[4] = test system: M. tuberculosis H37Rv_LuxABCDE; test: microbe, parasite or virus in culture; assay type: cell-based, Mycobacterium tuberculosis; settings: day 7, SD from three independent experiments; for MBC: Mycobacterium tuberculosis, read-out: MBC (±SD) via CFU
[5] = test system: M. tuberculosis H37Rv_LuxABCDE; assay type: cell-based, Mycobacterium tuberculosis; settings: 1:10,000-fold dilution
[6] = test system: M. tuberculosis H37Rv_LuxABCDE; test: postantibiotic effect by luminescence (RLU); assay type: cell-based, Mycobacterium tuberculosis; settings: 1.5 log10 RLU increase, 1:10,000-fold dilution
infected J774 = settings: day 7, 10 μM
[7] = test system: J774-internalized M. tuberculosis (H37Rv); test: intracellular activity by luminescence (EC90); assay type: cell-based, Mycobacterium tuberculosis; settings: for EC90: RLU
[8] = test system: J774 infected with M. tuberculosis strain Erdman; settings: read-out: Literature reported EC90; cited from earlier work
[9] = Mycobacterium tuberculosis, 168 h, day 7, 99% reduction in RLU vs T0, SD from three independent experiments, read-out: MBC (±SD) via luminescence
[10] = Mycobacterium tuberculosis, 336 h, day 14, 99% reduction in RLU vs T0, read-out: MBC (±SD) by luminescence on day 14
[11] = Mycobacterium tuberculosis, 504 h, day 21, 99% reduction in RLU vs T0, read-out: MBC (±SD) by luminescence on day 21
[12] = day 7, 99% reduction in RLU vs T0, SD from three independent experiments

Molecule | MIC (±SD) MABA [1] | MBC [2, 9] | MBC [2, 10] | MBC [2, 11] | change of MBC values over time [2] | time and/or concentration dependence of bactericidal activity [2] | MIC (±SD) LMICA [3] | MBC [4] | MBC (±SD) via luminescence [2, 12] | MBC (±SD) via CFU [4] | other results
CC(=O)NC[C@H]1CN(c2ccc(N3CCOCC3)c(F)c2)C(=O)O1 [Linezolid] | 1.7 (0.10) μM | 9.6 µM (≈ 3.24 µg/mL) | 7 µM (≈ 2.36 µg/mL) | 6 µM (≈ 2.02 µg/mL) | decreased | mainly time dependent | 1.7 (0.23) μM | > 29 µM | – | – | –
COc1c(N2C[C@@H]3CCCN[C@@H]3C2)c(F)cc2c(=O)c(C(=O)O)cn(C3CC3)c12 [Moxifloxacin] | 0.24 (0.04) μM | 0.91 µM (≈ 0.365 µg/mL) | 0.42 µM (≈ 0.169 µg/mL) | 0.46 µM (≈ 0.185 µg/mL) | decreased | both time and concentration dependent | 0.13 (0.02) μM | 0.753 µM (≈ 0.302 µg/mL) | – | – | –
O=[N+]([O-])c1cn2c(n1)OC[C@@H](OCc1ccc(OC(F)(F)F)cc1)C2 [Pretomanid] | 0.49 (0.02) μM | 0.63 µM (≈ 0.226 µg/mL) | 12.5 µM (≈ 4.49 µg/mL) | 13 µM (≈ 4.67 µg/mL) | increase | both time and concentration dependent | 0.46 (0.01) μM | 0.5 µM (≈ 0.18 µg/mL) | – | – | –
C/C=C/C[C@@H]1NC(=O)[C@H](CC(C)C)N2C(=O)[C@H](C[C@H](C)C2O)N(C)C(=O)[C@H](C)NC(=O)[C@H](Cc2ccc(O)c([N+](=O)[O-])c2)NC(=O)[C@H](CC(C)C)N(C)C(=O)[C@H](Cc2cn(C(C)(C)C3CO3)c3ccccc23)NC1=O (stereo partly drawn) [Rufomycin] | 0.032 (0.012) μM | – | – | – | decreased | mainly time dependent | 0.010 (0.001) μM | – | >1^c μM | >1^b μM | PAE 1× MIC CFU/ml ([5]; 3 h exposure at 1× MIC): 0 h; PAE 10× MIC CFU/ml ([5]; 3 h exposure at 10× MIC): 48 h; PAE 100× MIC CFU/ml ([5]; 3 h exposure at 100× MIC): 110 h; PAE 1× MIC RLU ([6]; 3 h exposure at 1× MIC): 0 h; PAE 10× MIC RLU ([6]; 3 h exposure at 10× MIC): 40 h; PAE 100× MIC RLU ([6]; 3 h exposure at 100× MIC): 96 h; bactericidal or bacteriostatic activity [2]: bacteriostatic; MBC ([2]; day 7, 99% reduction in RLU vs T0, SD from three independent experiments, read-out: MBC (±SD) via luminescence): > 1 µM; MBC ([2]; day 14, 99% reduction in RLU vs T0, read-out: MBC (±SD) by luminescence on day 14): > 1 µM; MIC lower than ecumicin ([3]; ratio of MICs of Table 1): 7 fold; Toxicity against infected J774, percent inhibition at the highest tested concentration (infected J774): 10 (8)* percent; EC90 ([7]; EC90, day 3, J774 macrophages, read-out: Intracellular activity, EC90 (±SD) Day 3): > 10000 nM; EC90 ([7]; EC90, day 5, J774 macrophages, read-out: Intracellular activity, EC90 (±SD) Day 5): 3060 nM; EC90 ([7]; EC90, day 7, J774 macrophages, read-out: Intracellular activity, EC90 (±SD) Day 7): 1520 nM; percent inhibition at the highest tested concentration, intracellular activity Day 3 ([7]; day 3, 10 μM): 69%; EC90 [8]: ~100 nM
[H]/N=C(/N)N[C@H]1[C@H](O)[C@@H](O)[C@H](O[C@@H]2O[C@@H](C)[C@](O)(C=O)[C@H]2O[C@@H]2O[C@@H](CO)[C@H](O)[C@@H](O)[C@@H]2NC)[C@@H](N/C(N)=N\[H])[C@@H]1O [Streptomycin] | 0.12 (0.02) μM | 0.3 µM (≈ 0.174 µg/mL) | 0.5 µM (≈ 0.291 µg/mL) | 0.9 µM (≈ 0.523 µg/mL) | – | both time and concentration dependent | 0.12 (0.04) μM | 0.37 µM (≈ 0.215 µg/mL) | – | – | –
Capreomycin | 0.70 (0.03) μM | – | – | – | increase | – | 0.53 (0.07) μM | – | 1.3 (0.4) μM | 1.7 (0.9) μM | MBC (±SD) by luminescence on day 14 ([2]; day 14, 99% reduction in RLU vs T0): 6.94 (3.8) µM; MBC (±SD) by luminescence on day 21 ([2]; day 21, 99% reduction in RLU vs T0): 13.65 (2.34) µM
